Results reported in publication PMC9143562, “Hydrophilic CO-Releasing Material of PEGlyated Ruthenium Carbonyl Complex” (Materials, 2022).

How the values were obtained:
[1] = tested on: acute hepatic ischemia-reperfusion injury; design: method as in PMID 20444253, PMID 21270767; conditions: rats; serum AST/ALT, liver histology score; cited from earlier work
[2] = cited from earlier work
[3] = logP by flask-shaking method (n-octanol/water, UV-vis); format: physicochemical; conditions: for logP: oil-water partition coefficient, n-octanol/water, by UV-vis
Procedure: To identify the structural features of CO-RMs that govern the CO releasing behaviour, the CO release kinetics of 4–15 were correlated to the corresponding M-CO band and lipophilicity in Table 2. Firstly, the oil-water partition coefficient logP values of complexes were measured by the “flask-shaking” method with n-octanol and water, respectively. […] The water-solubility of these sawhorse ruthenium complexes mainly depend on both the axial glycol amino esters and bridging carboxylate, respectively. […]
4. Water-solubility Measured by the ﬂask - shaking method
The lipophilicity of complexes was measured by the ﬂask- shaking method where n-octanol and ultrapure water were used as the organic and aqueous phase respectively. First, make the pre saturated of oil-water two phase. Then the tested complex was dissolved in the isolated organic phase at a concentration of 1mg/mL, take 2 mL of liquld and 8mL aqueous phase was joined, the mixture was swirled for 12h at room temperature. The solution was then centrifuged, and the amounts of complex in organic layers were determined by UV-vis. Drawing standard curve and determination of oil-water partition coefficient. […]
5.4 UV-vis spectra of Lipophilicity (log Po/w)
Table S3. Stand curve measurement and calculation of Log P
Entry Standard curve equation Correlation coefficient(R2) […]

[4] = tested on: myoglobin (lyophilised horse heart); experiment: Photo-activated CO release, myoglobin assay; conditions: CO release half-life, 60 µM CO-RM, LED-UV 365 nm, PBS pH 7.4
Procedure: The CO release activity of each CO-RM […] was measured with the “golden standard” of myoglobin assay. Firstly, sodium dithionite was added to reduce myoglobin to deoxy-myoglobin (deoxyMb) in PBS (pH = 7.4) at 37.8 °C. A stock solution of CO-RM was added and then activated by LED-UV radiation at 365 nm, releasing CO […]. The change of deoxyMb to carbonmonoxy-myoglobin (MbCO) was monitored by UV-vis spectroscopy. […] The half-lives of CO release rate of 4 at 60 µM is 166 s, 40 µM is 172 s, and 20 µM is 267 s. […]
3. CO-Release Measured by Standard Myoglobin Assay
The release of CO from the metal carbonyl compounds was studied by measuring the conversion of deoxy-myoglobin (deoxy-Mb) to carboxy-myoglobin (Mb-CO). The amount of Mb-CO formed was quantified by measuring the absorbance at 540 nm. […] A 2 mL quantity of this was measured to obtain a deoxy-Mb spectrum and then bubbled with CO to get a Mb-CO spectrum. […] The concentration of myoglobin in the stock solution was calculated from the maximal absorption peak of the Mb-CO solution at 540 nm (Equation 1).
Equation 1. Equation for calculating total myoglobin concentration in a saturated solution of Mb-CO; ε = extinction coefficient of Mb-CO=15.4 mM-1cm-1, OD540 = absorbance of Mb-CO solution […]
Intermediate concentrations of Mb-CO are calculated from the OD540. […] The new extinction coefficient was calculated (Equation 2). […]

[5] = human plasma; cited from earlier work

[C-]#[O+].[C-]#[O+].[C-]#[O+].[C-]#[O+].[C-]#[O+].[C-]#[O+].[Cl][Ru][Cl].[Cl][Ru][Cl] [CO-RM-02, [Ru(CO)3Cl2]2]
effect on acute hepatic ischemia-reperfusion injury [1]: attenuated acute hepatic ischemia-reperfusion injury in rats
solubility in aqueous systems [2]: poor solubility

[Ru2(CO)4(µ2-ŋ2-O2C-C14H9)2 (ŋ1-NH2CH2C(=O)OCH2CH2OCH3)2] [CO-RM 15]
logP [3]: too hydrophobic to be evaluated

[Ru2(CO)4(µ2-ŋ2-O2C-p-ClC6H5)2 (ŋ1-NH2CH2C(=O)OCH2CH2OCH3)2] [CO-RM 13]
t1/2, 60 µM [4]: 16.1 min
Coctanol ([3]; concentration in n-octanol phase, UV-vis): 0.9201 mmol/L
Cwater ([3]; concentration in water phase): 0.05055 mmol/L
logP [3]: 1.26

NCC(=O)O.[C-]#[O+].[C-]#[O+].[C-]#[O+].[Cl][Ru] [CO-RM-03, [Ru(CO)3Cl(glycinate)]]
half-life of CO release [5]: 3.6 min
